Measurements from ChEMBL document CHEMBL1949658, “3D-QSAR and 3D-QSSR models of negative allosteric modulators facilitate the design of a novel selective antagonist of human α4β2 neuronal nicotinic acetylcholine receptors” (Bioorg Med Chem Lett, 2012).

How the values were obtained:
[1] = organism: Homo sapiens; experiment: Selectivity ratio of IC50 for human nAChR alpha3/beta4 receptor to IC50 for human nAChR alpha4/beta2 receptor
[2] = biological target: Neuronal acetylcholine receptor; alpha4/beta2 (Homo sapiens, UniProt P17787+P43681); experiment: Antagonist activity at human nAChR alpha4/beta2 receptor expressed in HEK ts201 cells assessed as calcium accumulation by fluorescence analysis; format: functional, cell-based
Sequence of Neuronal acetylcholine receptor; alpha4/beta2 (P17787 whole entry): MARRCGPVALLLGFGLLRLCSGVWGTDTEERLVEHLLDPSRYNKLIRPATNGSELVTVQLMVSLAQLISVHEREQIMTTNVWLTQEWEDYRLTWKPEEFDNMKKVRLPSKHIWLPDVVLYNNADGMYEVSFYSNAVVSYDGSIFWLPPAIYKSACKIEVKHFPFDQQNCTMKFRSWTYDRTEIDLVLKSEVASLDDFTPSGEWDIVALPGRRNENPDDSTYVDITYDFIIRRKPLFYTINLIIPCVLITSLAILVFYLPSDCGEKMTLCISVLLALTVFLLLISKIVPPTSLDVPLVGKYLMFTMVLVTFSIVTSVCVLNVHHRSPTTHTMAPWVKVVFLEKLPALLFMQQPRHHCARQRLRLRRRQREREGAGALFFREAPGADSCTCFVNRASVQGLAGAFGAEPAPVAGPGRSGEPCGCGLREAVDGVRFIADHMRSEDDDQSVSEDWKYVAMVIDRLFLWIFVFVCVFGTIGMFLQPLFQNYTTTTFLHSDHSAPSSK
Sequence of Neuronal acetylcholine receptor; alpha4/beta2 (P43681 whole entry): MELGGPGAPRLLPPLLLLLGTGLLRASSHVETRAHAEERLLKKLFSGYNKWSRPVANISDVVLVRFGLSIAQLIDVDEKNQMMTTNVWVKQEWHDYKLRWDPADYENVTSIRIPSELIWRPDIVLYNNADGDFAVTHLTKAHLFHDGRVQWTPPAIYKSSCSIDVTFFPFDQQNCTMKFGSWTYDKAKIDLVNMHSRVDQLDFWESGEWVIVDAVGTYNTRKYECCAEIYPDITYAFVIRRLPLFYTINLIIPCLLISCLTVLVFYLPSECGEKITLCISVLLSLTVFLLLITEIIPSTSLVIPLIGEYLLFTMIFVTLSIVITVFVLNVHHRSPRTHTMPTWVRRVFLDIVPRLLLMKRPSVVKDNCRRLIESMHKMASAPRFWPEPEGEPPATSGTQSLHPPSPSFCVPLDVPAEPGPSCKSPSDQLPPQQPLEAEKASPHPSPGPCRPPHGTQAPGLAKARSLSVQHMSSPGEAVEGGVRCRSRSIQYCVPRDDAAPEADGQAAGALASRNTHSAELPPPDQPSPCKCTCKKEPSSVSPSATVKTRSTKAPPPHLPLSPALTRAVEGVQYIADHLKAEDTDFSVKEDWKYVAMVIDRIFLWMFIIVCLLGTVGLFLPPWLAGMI

[3] = biological target: Neuronal acetylcholine receptor; alpha3/beta4 (Homo sapiens, UniProt P30926+P32297); experiment: Antagonist activity at human nAChR alpha3/beta4 receptor expressed in HEK ts201 cells assessed as calcium accumulation by fluorescence analysis; format: functional, cell-based
Sequence of Neuronal acetylcholine receptor; alpha3/beta4 (P30926 whole entry): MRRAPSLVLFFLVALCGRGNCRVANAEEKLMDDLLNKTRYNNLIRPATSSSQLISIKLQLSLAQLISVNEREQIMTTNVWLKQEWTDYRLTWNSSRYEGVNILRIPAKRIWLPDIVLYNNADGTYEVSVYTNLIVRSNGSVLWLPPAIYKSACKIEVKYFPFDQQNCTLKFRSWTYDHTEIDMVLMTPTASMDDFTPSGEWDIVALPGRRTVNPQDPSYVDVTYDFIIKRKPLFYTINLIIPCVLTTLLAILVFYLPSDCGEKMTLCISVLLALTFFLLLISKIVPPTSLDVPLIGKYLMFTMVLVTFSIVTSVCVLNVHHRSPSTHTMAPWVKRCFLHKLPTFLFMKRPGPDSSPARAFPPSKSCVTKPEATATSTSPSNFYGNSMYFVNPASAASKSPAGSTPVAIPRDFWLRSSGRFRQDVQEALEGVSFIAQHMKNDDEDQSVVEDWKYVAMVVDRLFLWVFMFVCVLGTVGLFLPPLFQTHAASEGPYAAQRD
Sequence of Neuronal acetylcholine receptor; alpha3/beta4 (P32297 whole entry): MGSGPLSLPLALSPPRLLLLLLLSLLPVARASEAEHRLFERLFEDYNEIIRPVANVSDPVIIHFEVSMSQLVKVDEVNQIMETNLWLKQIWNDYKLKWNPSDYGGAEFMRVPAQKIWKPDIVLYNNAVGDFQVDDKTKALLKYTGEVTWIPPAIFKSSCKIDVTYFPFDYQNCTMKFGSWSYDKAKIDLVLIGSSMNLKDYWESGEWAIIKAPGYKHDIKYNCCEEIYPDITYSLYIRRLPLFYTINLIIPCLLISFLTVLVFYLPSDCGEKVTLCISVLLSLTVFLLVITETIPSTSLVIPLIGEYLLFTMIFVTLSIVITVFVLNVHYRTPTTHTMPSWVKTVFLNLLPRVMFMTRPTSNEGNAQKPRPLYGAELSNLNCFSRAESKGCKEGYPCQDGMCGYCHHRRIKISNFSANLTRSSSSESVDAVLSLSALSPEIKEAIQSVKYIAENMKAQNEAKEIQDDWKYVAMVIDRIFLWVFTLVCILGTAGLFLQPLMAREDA

[4] = organism: Homo sapiens; experiment: Selectivity ratio of pIC50 for human nAChR alpha3/beta4 receptor to pIC50 for human nAChR alpha4/beta2 receptor
[5] = Lipophilicity, log P of the compound; format: physicochemical; details: octanol/water

Row | Structure (SMILES) | Ratio IC50 [1] | IC50 ([2]; read-out: IC50) | IC50 ([3]; read-out: IC50) | Ratio pIC50 [4] | logP [5] | IC50 ([2]; read-out: pIC50 (converted)) | IC50 ([3]; read-out: pIC50 (converted))
1 | O=C(Nc1ccncn1)c1ccccc1-c1ccccc1 | 1.6 | 25.1 µM | 39.6 µM |  |  |  | 
2 | O=C(OCC1CCN(C(=O)CCc2ccccc2)CC1)c1ccccc1-c1ccccc1 | 1.4 | 5.9 µM | 9.4 µM |  |  |  | 
3 | O=C(OCC1CCCN(CCCc2ccccc2)C1)c1ccccc1-c1ccccc1 (stereo not given) |  | 13.5 µM | > 100 µM | 3.87 | 5.9 |  | 
4 | O=C(OCC1CCCN(C(=O)CCc2ccccc2)C1)c1ccccc1C(F)(F)F (stereo not given) | 2.1 | 3.9 µM | 6.3 µM |  |  |  | 
5 | O=C(Nc1cccc2ccccc12)c1ccccc1-c1ccccc1 | 1.8 | 10.7 µM | 18.2 µM |  |  |  | 
6 | O=C(NCc1cccc2ccccc12)c1ccccc1-c1ccccc1 | > 10 | 13.9 µM | > 100 µM |  | 5 |  | 
7 | O=C(Nc1ccccn1)c1ccccc1-c1ccccc1 | 1.3 | 13.6 µM | 17.5 µM |  |  |  | 
8 | O=C(NCc1ccccc1)c1ccccc1-c1ccccc1 | 1 | 7.5 µM | 7.6 µM |  |  |  | 
9 | O=C(Nc1ccccc1)c1ccccc1-c1ccccc1 | 1.6 | 6.9 µM | 10.7 µM |  |  |  | 
10 | O=C(OC1CCCN(C(=O)CCc2ccccc2)C1)c1ccccc1-c1ccccc1 (stereo not given) | 1.5 | 4.3 µM | 6 µM |  |  |  | 
11 | CC1CC(=O)N(c2ccccc2C(=O)OCC2CCCN(CCCC3CCCCC3)C2)C1=O (stereo not given) |  |  |  | -0.14 |  | 14.5 µM | 10.7 µM
